Earlier results on 1 compound are cited in patent publication US20080305060A1, “AQUEOUS-ALCOHOLIC DEPIGMENTING GELS” (GALDERMA RESEARCH & DEVELOPMENT, priority 2005, published 2008).

Where two headings read alike, the source gives them in different places.

Consider `Oc1ccc(O)cc1` [hydroquinone], for which the Incidence of irritation result is “relatively high” (10% hydroquinone concentration), “virtually nonexistent” (hydroquinone concentration of 2%) and “reduces greatly” (preparations with a 5% dose of hydroquinone).
